Reference: ChEMBL document CHEMBL4715719, “Synthesis and biological properties of polyamine modified flavonoids as hepatocellular carcinoma inhibitors” (Eur J Med Chem, 2016)
Activity calls are given as the source filed them. The calls are words filed in the database; no cut-off is given here.

Experiments:
[1] = Cytotoxicity against human QSG7701 cells assessed as inhibition of cell proliferation at 100 uM measured after 48 hrs by MTT assay relative to control; assay type: cell-based
SMMC-7721 [2] = assay: Antiproliferative activity against human […] cells assessed as inhibition of cell proliferation at 100 uM measured after 48 hrs by MTT assay relative to control; assay type: functional
HepG2 [3] = assay: Antiproliferative activity against human HepG2 cells assessed as inhibition of cell proliferation at 100 uM measured after 48 hrs by MTT assay relative to control; assay type: functional
SMMC-7721 [4] = assay: Antiproliferative activity against human […] cells assessed as inhibition of cell proliferation at 30 uM measured after 48 hrs by MTT assay relative to control; assay type: functional
[5] = Cytotoxicity against human QSG7701 cells assessed as inhibition of cell proliferation at 30 uM measured after 48 hrs by MTT assay relative to control; assay type: cell-based
HepG2 [6] = assay: Antiproliferative activity against human HepG2 cells assessed as inhibition of cell proliferation at 30 uM measured after 48 hrs by MTT assay relative to control; assay type: functional
H22 [7] = assay: Antimetastatic activity against mouse H22 cells implanted in Kunming mouse assessed as number of metastatic focus at 0.4 mg/kg, iv administered for 7 consecutive days starting from day 11 post inoculation and measured after 18 days (reference value: 5.73 +/- 14.6); assay type: functional; settings: time 8 day
HepG2 [8] = assay: Antiproliferative activity against human HepG2 cells assessed as inhibition of cell proliferation at 1 uM measured after 48 hrs by MTT assay relative to control; assay type: functional
[9] = Toxicity in iv dosed Kunming mouse assessed as maximum tolerated dose; assay type: organism-based; settings: in vivo
SMMC-7721 [10] = assay: Antiproliferative activity against human […] cells assessed as inhibition of cell proliferation at 5 uM measured after 48 hrs by MTT assay relative to control; assay type: functional
SMMC-7721 [11] = assay: Antiproliferative activity against human […] cells assessed as inhibition of cell proliferation at 1 uM measured after 48 hrs by MTT assay relative to control; assay type: functional
[12] = Toxicity in Kunming mouse implanted with mouse H22 cells assessed as mouse mortality at 0.4 mg/kg, iv administered for 7 consecutive days starting from day 8 post inoculation and measured after 16 days; assay type: organism-based; settings: in vivo, 192 h, time 8 day
[13] = Cytotoxicity against human QSG7701 cells assessed as inhibition of cell proliferation at 1 uM measured after 48 hrs by MTT assay relative to control; assay type: cell-based
[14] = Toxicity in Kunming mouse implanted with mouse H22 cells assessed as change in body weight at 0.4 mg/kg, iv administered for 7 consecutive days starting from day 11 post inoculation and measured after 18 days (reference value: 5.2 %); assay type: organism-based; settings: in vivo, 192 h, time 8 day
HepG2 [15] = assay: Antiproliferative activity against human HepG2 cells assessed as inhibition of cell proliferation at 5 uM measured after 48 hrs by MTT assay relative to control; assay type: functional
[16] = Toxicity in Kunming mouse implanted with mouse H22 cells assessed as change in mouse body weight at 0.4 mg/kg, iv administered for 7 consecutive days starting from day 8 post inoculation and measured after 16 days (reference value: 21 %); assay type: organism-based; settings: in vivo, 192 h, time 8 day
H22 [17] = assay: Antimetastatic activity against mouse H22 cells implanted in Kunming mouse assessed as inhibition of metastasis at 0.4 mg/kg, iv administered for 7 consecutive days starting from day 11 post inoculation and measured after 18 days relative to control; assay type: functional; settings: 192 h, time 8 day
H22 [18] = assay: Antitumor activity against mouse H22 cells implanted in Kunming mouse assessed as reduction in tumor weight at 0.4 mg/kg, iv administered for 7 consecutive days starting from day 8 post inoculation and measured after 16 days (reference value: 2.15 +/- 0.51 g); assay type: functional; settings: time 8 day
H22 [19] = assay: Antitumor activity against mouse H22 cells implanted in Kunming mouse assessed as tumor growth inhibition at 0.4 mg/kg, iv administered for 7 consecutive days starting from day 8 post inoculation and measured after 16 days relative to control; assay type: functional; settings: 192 h, time 8 day, read-out: TGI
[20] = Cytotoxicity against human QSG7701 cells assessed as inhibition of cell proliferation at 5 uM measured after 48 hrs by MTT assay relative to control; assay type: cell-based
Mus musculus [21] = assay: Upregulation of phosphorylated JNK in Kunming mouse implanted with mouse H22 cells assessed as activation of p53 at 800 uM measured after 48 hrs by immunofluorescence analysis; assay type: functional
Mus musculus [22] = assay: Downregulation of Bcl-2 in Kunming mouse implanted with mouse H22 cells at 800 uM measured after 48 hrs by immunofluorescence analysis; assay type: functional
Mus musculus [23] = assay: Upregulation of phosphorylated p38 in Kunming mouse implanted with mouse H22 cells assessed as activation of p53 at 800 uM measured after 48 hrs by immunofluorescence analysis; assay type: functional
HepG2 [24] = assay: Induction of apoptosis in human HepG2 cells assessed as activation of caspase 9 at 80 uM measured after 48 hrs by immunofluorescence assay; assay type: functional, cell-based
[25] = Toxicity in Kunming mouse implanted with mouse H22 cells assessed as change in body weight at 100 mg/kg, iv administered for 7 consecutive days starting from day 11 post inoculation and measured after 18 days (reference value: 5.2 %); assay type: organism-based; settings: in vivo, 192 h, time 8 day
[26] = Toxicity in Kunming mouse implanted with mouse H22 cells assessed as change in mouse body weight at 100 mg/kg, iv administered for 7 consecutive days starting from day 8 post inoculation and measured after 16 days (reference value: 21 %); assay type: organism-based; settings: in vivo, 192 h, time 8 day
H22 [27] = assay: Antitumor activity against mouse H22 cells implanted in Kunming mouse assessed as reduction in tumor weight at 100 mg/kg, iv administered for 7 consecutive days starting from day 8 post inoculation and measured after 16 days (reference value: 2.15 +/- 0.51 g); assay type: functional; settings: time 8 day
HepG2 [28] = assay: Induction of mitochondrial membrane potential loss in human HepG2 cells at 80 uM after 48 hrs by Rh123 staining based assay; assay type: functional, cell-based
HepG2 [29] = assay: Induction of apoptosis in human HepG2 cells assessed as activation of caspase 8 at 80 uM measured after 48 hrs by immunofluorescence assay; assay type: functional, cell-based
HepG2 [30] = assay: Induction of apoptosis in human HepG2 cells assessed as activation of caspase 3 at 80 uM measured after 48 hrs by immunofluorescence assay; assay type: functional, cell-based
H22 [31] = assay: Antitumor activity against mouse H22 cells implanted in Kunming mouse assessed as tumor growth inhibition at 100 mg/kg, iv administered for 7 consecutive days starting from day 8 post inoculation and measured after 16 days relative to control; assay type: functional; settings: 192 h, time 8 day, read-out: TGI
[32] = Toxicity in Kunming mouse implanted with mouse H22 cells assessed as mouse mortality at 100 mg/kg, iv administered for 7 consecutive days starting from day 8 post inoculation and measured after 16 days; assay type: organism-based; settings: in vivo, 192 h, time 8 day
HepG2 [33] = assay: Induction of lysosomal impairment in human HepG2 cells at 80 uM after 48 hrs by Lyso-tracker Red staining based assay; assay type: functional, cell-based
HepG2 [34] = assay: Induction of ROS generation in human HepG2 cells at 80 uM after 48 hrs by DCFH-DA staining based assay; assay type: functional, cell-based
H22 [35] = assay: Antimetastatic activity against mouse H22 cells implanted in Kunming mouse assessed as inhibition of metastasis at 100 mg/kg, iv administered for 7 consecutive days starting from day 11 post inoculation and measured after 18 days relative to control; assay type: functional; settings: 192 h, time 8 day

Row | Structure (SMILES) | inhibition at 48 h, 100 µM [1] [%] | inhibition at 100 µM (SMMC-7721 [2]) [%] | inhibition at 100 µM (HepG2 [3]) [%] | inhibition at 30 µM (SMMC-7721 [4]) [%] | inhibition at 48 h, 30 µM [5] [%] | inhibition at 30 µM (HepG2 [6]) [%] | other results
1 | NCCCCNCCCCNCC(=O)NCc1cccc2c(=O)cc(-c3cccc4ccccc34)oc12 | 74.4 | 85.5 | 75.9 | 70.2 | 46.7 | 62 | 
2 | CCCCNCC(=O)NCc1cccc2c(=O)cc(-c3cccc4ccccc34)oc12 | 41.7 | 28.4 | 21.6 | 14.6 | 19.6 | 6 | 
3 | NCCCCNCC(=O)NCc1cccc2c(=O)cc(-c3cccc4ccccc34)oc12 | 10.6 | 39.8 | 16.1 | < 5 | < 5 | < 5 | 
4 | O=C1c2c(O)ccc(O)c2C(=O)c2c(NCCNCCO)ccc(NCCNCCO)c21 [MITOXANTRONE] |  |  |  |  |  |  | Activity (H22 [7]): 29.1; inhibition at 1 µM (HepG2 [8]): 41.2%; MTD [9]: 0.4 mg/kg; inhibition at 5 µM (SMMC-7721 [10]): 62.2%; inhibition at 1 µM (SMMC-7721 [11]): 20.5%; Activity [12]: Non-Toxic; inhibition at 48 h, 1 µM [13]: 75.8%; Activity [14]: -0.8%; inhibition at 5 µM (HepG2 [15]): 78.6%; Activity [16]: -6.6%; inhibition in vivo at 0.4 mg/kg (H22 [17]): 49.2%; Activity (H22 [18]): 0.57 g; inhibition in vivo at 0.4 mg/kg (H22 [19]): 73.4%; inhibition at 48 h, 5 µM [20]: 82.5%
5 | CN(C)CCNCC(=O)NCc1cccc2c(=O)cc(-c3cccc4ccccc34)oc12 | 17.9 | 16.6 | 7.5 | < 5 | < 5 | < 5 | 
6 | CC(=O)Oc1ccccc1C(=O)O |  |  |  |  |  |  | Activity (Mus musculus [21]): Active; Activity (Mus musculus [22]): Active; Activity (Mus musculus [23]): Active
7 | NCCCCNCCCNCC(=O)NCc1cccc2c(=O)cc(-c3cccc4ccccc34)oc12 | 22.4 | 32.5 | 28.9 | 7.6 | < 5 | < 5 | 
8 | O=c1c(O)c(-c2ccc(O)c(O)c2)oc2cc(O)cc(O)c12 [QUERCETIN] | 36 | 62.9 | 56.3 | 29.5 | < 5 | 33.2 | Activity (HepG2 [24]): Active; Activity [25]: 2.1%; Activity [26]: 6.3%; Activity (H22 [27]): 1.3 g; Activity (HepG2 [28]): Active; Activity (HepG2 [29]): Active; Activity (HepG2 [30]): Active; inhibition in vivo at 100 mg/kg (H22 [31]): 39.7%; Activity [32]: Non-Toxic; Activity (HepG2 [33]): Active; Activity (HepG2 [34]): Active; inhibition in vivo at 100 mg/kg (H22 [35]): 34.1%
